According to US11952431B2, “Neutrophil-binding peptides” (YISSUM RESEARCH DEVELOPMENT COMPANY OF THE HEBREW …, priority 2020, dated 2024):
“Also recorded” adds a separate entry of the source.

Columns and labels:
circulating neutrophils = experiment: Ex vivo binding to circulating neutrophils of healthy and tumor bearing mice; design: species or system mouse
Description: 0.5×10^6 purified HDNs were stained in 100 μl of preincubated 3.3 μg/ml 16-LQI-Cy3 solution for 30 min at 4° C. […] After staining, cells were washed and analyzed by flow cytometry.

neutrophils [1] = experiment: Doublet analysis of flow cytometry data for crosslinking of neutrophils; format: cell-based, mouse
Description: In order to rule out that there is a crosslinking between neutrophils when incubating with the LQI tetramer-SA-complex, flow cytometry data was analyzed to assess if there was an increase in doublet cells after incubation with the LQI tetramer-SA-complex. It is possible to examine the light scatter plots and compare the height signal of a voltage pulse (SSC-H, FSC-H) to the area values (SSC-A, FSC-A; A=Height*Width). If a doublet passes the laser beam in the flow cytometer, the width of the pulse signal (corresponds to time) will increase and therefore the value for the area (SSC-A and FSC-A) will increase. By comparing e.g. SSC-H and SSC-A it is possible to identify doublets because they are outliers in the blot.

[2] = tested on: murine neutrophils (HDNs from 4T1-tumor bearing mice); experiment: Titration of binding to purified HDNs, flow cytometry; design: species or system mouse
Description: Analysis was performed by flow cytometry.

neutrophils [3] = experiment: Confocal imaging of 16-LQI with Gr-1 neutrophils; format: cell-based, mouse
Description: FIGS. 2A-I: (2A) Schematic representation of the structure of a tetrameric LQI. […] (2E) Representative histogram showing the percent binding of 16-LQI to each WBC population in healthy Balb/C mice following ex vivo incubation and staining with Streptavidin-Cy3, as analyzed by flow cytometry. *=gating based on light scatter. […] Ly6G^+ population represent HDN and Ly6G− cells are other WBCs. […] (2I) Representative image of confocal microscopy with Gr-1 neutrophils (green) bound by the 16-LQI (red).

other WBC = experiment: LQI tetramer alone or 16-LQI binding to WBCs, flow cytometry; design: species or system mouse; conditions: WBCs from 4T1-tumor bearing mice, 30 min at 4° C.
Description: (§1) After washing, the cells were stained with 50 μl 3.3 μg/ml of Streptavidin-Cy3 (SA-Cy3).
(§2) “Tetramer-Streptavidin Complex”:1 μl of the 309 μM stock solution of the tetrameric peptide was preincubated with 300 μl of 3.3 μg/ml SA-Cy3 for 30 min at RT. 100 μl of LQI tetramer-SA-Cy3 mix was then used to stain 0.5×10^6 cells.
(§3) The cells were washed and analyzed by flow cytometry.

neutrophils [4] = experiment: as above; design: species or system mouse; conditions: WBCs from 4T1-tumor bearing mice, 30 min at 4° C.
Description: as §1, §2, §3

[5] = tested on: circulating CD177+ cells (neutrophils); experiment: Flow cytometry of WBC stained for CD177 and 16-LQI; format: binding, mouse
From the text: (§4) (21C-D) Representative dot plots of isolated WBC stained with (21C) Ly6G and CD177 or (21D) CD177 and 16-LQI. […] (21F) Representative STORM imaging of a single neutrophil with staining of CD177 (green) and 16-LQI (red), overlay with brightfield (left) or DAPI staining of nucleus (right). (21G) Quantification of CD177 and 16-LQI interaction for image depicted in (E) using the ImageJ Interaction Factor plugin.

CD177 [6] = target: T1, CD177 (Mus musculus, UniProt Q8R2S8); experiment: STORM imaging of CD177 and 16-LQI on a neutrophil; format: binding; design: endogenous in cells; host or cells: murine neutrophils
T1 sequence (Q8R2S8 22-817): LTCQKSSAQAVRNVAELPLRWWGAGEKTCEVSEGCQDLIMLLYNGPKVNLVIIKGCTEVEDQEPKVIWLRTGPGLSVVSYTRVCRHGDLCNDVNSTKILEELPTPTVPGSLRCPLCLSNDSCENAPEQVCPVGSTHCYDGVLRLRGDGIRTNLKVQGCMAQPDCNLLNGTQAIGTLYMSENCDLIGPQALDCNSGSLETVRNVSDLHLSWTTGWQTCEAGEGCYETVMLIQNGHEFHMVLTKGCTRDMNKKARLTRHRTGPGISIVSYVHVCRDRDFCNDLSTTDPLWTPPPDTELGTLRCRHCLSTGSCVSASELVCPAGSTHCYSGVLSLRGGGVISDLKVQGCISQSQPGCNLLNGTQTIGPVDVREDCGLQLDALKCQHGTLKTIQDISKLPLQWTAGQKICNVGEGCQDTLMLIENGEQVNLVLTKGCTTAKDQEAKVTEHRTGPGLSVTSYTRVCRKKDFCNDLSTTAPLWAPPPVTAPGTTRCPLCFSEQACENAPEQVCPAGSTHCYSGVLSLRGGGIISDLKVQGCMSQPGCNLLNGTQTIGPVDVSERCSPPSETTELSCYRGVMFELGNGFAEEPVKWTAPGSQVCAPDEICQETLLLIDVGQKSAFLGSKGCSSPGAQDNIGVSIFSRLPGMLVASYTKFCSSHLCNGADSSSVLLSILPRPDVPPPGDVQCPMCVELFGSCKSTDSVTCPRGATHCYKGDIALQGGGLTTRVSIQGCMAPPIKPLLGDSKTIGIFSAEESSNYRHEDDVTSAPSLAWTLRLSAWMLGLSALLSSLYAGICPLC
From the text: as §4

[7] = tested on: PMA stimulated ROS production in neutrophils; experiment: PMA induced ROS production after pretreatment with DPI or loaded nanoparticles; format: cell-based; conditions: pretreated 3 hrs with 10 ul NP or 1 uM free DPI, then 50 nM PMA
Description: PLGA NPs are known to gradually degrade within the cell, releasing any encapsulated payload. Therefore, whether neutrophil degranulation ROS production could be modulated by encapsulating small molecule inhibitors within neutrophil specific NPs (NSNPs) was tested. […] DPI was loaded in the LQI-coated nanoparticles using a single emulsion encapsulation process. Then, neutrophils were pretreated for 3 hrs with 10 ul empty NP (Empty NP), 10 ul DPI-loaded NP (NP+DPI) or 1 uM free DPI. After one wash, neutrophils were stimulated with 50 nM PMA to induce ROS production. Positive control for PMA induction were neutrophils pretreated with vehicle (empty NP). Negative control (Cont.) were untreated neutrophils.

[8] = tested on: tumor-associated neutrophils (TANs); conditions: TANs from 4T1 tumors, 30 min at 4° C.
From the text: After staining, cells were washed and analyzed by flow cytometry.

CD177 [9] = target: T1, CD177; conditions: neutrophil lysate 3 h, mass spectrometry
Description: After washing, the bound proteins were eluted by incubating the beads for 10 min at 95° C. in protein sample buffer containing beta-mercaptoethanol. The gel was stained using silver staining. Lanes of the eluates of peptide- and control-beads were cut out and analyzed by mass spectrometry.

[10] = tested on: neutrophils (HDNs) from 4T1 tumor bearing Balb/C mice
Description: 800 μl of 2% FCS/RPMI medium were placed into the 24-well plate, then Millicell® cell culture inserts with a pore size of […] were placed into the wells and allowed to soak for 5 min. HDNs were suspended to a density of 250,000 cells/ml in 2% FCS/RPMI and 200 μl of the cell suspension were placed into the upper chamber of the transwell insert. Migration was stimulated by addition of […] CXCL2 to the bottom chamber of the wells (consider V=800 μl), and peptide was added to HDN in the upper chamber in two different concentrations (3.09 μM or 309 nM considering […]). Assay was stopped after 1.5 hr and inserts were removed with a forceps. Each condition was tested in triplicate. 5 pictures were taken per well at the same coordinates (middle, top, bottom, left, right). Cells per field of view were counted using ImageJ.
The purified HDNs were placed in the upper chamber of a transwell (pore size 5 μm) in 2% FCS/RPMI medium. The lower chamber contained either only 2% FCS/RPMI medium or the chemokine CXCL2 to induce neutrophil migration. […] The assay was stopped after 1.5 h incubation, five pictures of each well were taken, counted and averaged. The experiment was done in triplicates.

[11] = tested on: 4T1 cancer cells co-cultured with HDNs
Description: In vitro luciferase assay to monitor the anti-tumor activity of isolated neutrophils (‘Killing Assay’): 5,000 luciferase-labeled 4T1 breast carcinoma cells were seeded in 100 μl OptiMem medium containing 2% heat-inactivated FCS in each well of a white 96-flat-bottom well plate. 24 hours after seeding the tumor cells, 1×10^5 HDNs purified from the circulation of 4T1-tumor-bearing mice were added in 50 μl OptiMem with 2% FCS. The co-culture was incubated overnight. Control wells were incubated in 50 μl medium without neutrophils. Multiple repeats (12 wells) were done of each experimental setting. The supernatant was aspirated and 50 μl of cell culture lysis buffer were added (Promega). The plate was incubated for 15 min on an orbital shaker and then read in the plate-reader. Well-wise 50 μl of in-house prepared luciferase assay solution was injected during the measurement, and chemiluminescence was read for 10 sec per well. % tumor lysis was calculated by the following formula: % tumor lysis=(1−[luminescence of samples with neutrophils]/[luminescence of samples in medium])×100%.
In more details, 5.000 luciferase-labeled 4T1 breast carcinoma cells were cultured for 18 hours. […] The next day, luciferin dependent chemiluminescence was measured and the percentage of killing was calculated compared to control wells that were not cultured with HDNs. […]

murine CD177 = target: T2, murine CD177 (Mus musculus, UniProt Q8R2S8); experiment: Binding to HEK293T cells ectopically expressing CD177; conditions: control versus CD177-overexpressing cells
T2 construct: expressed in transfected cells; host or cells: HEK293T
T2 sequence (Q8R2S8 22-817): T1 sequence (Q8R2S8 22-817)

murine neutrophils = experiment: Phage-display screening of a peptide library on murine neutrophils; format: binding, mouse; conditions: prevalence in the final eluate, average of 5 replicates
Description: A phage-display screening of a peptide library was conducted, in a similar way to a screen conducted by Mazzucchelli et al. (Blood, 1999, 93(5), 1738-1748). In the present screen, a library of pages displaying 10^12 different peptides on their VIII protein was used to identify peptides that bind to murine neutrophils. The peptides in the library were random sequences of 6-12 amino acids in linear or cyclic form (Ryvkin et al., 2018, Nucleic Acids Research, 2018, Vol. 46, No. 9 e52). The screen was conducted using murine Normal-Density Neutrophils (NDN) for positive selection, whereas monocytes and lymphocytes served for negative selection. Following 3 rounds of positive panning and 2 interlaced rounds of negative panning, the neutrophil affinity selected phages were eluted and sequenced (FIG. 11). The top-ranking enriched peptide sequences and their prevalence in the final eluate (average of 5 replicates) are presented in Table 3.

[12] = tested on: murine neutrophils (HDNs from 4T1 tumor bearing Balb/C mice); experiment: Competition assay of LQI phage binding with synthetic LQI peptide constructs; design: species or system mouse; conditions: peptide 20 min, then 10^10 LQI phages; M13-PE flow cytometry
Description: Several LQI monomeric peptide conjugates were synthesized by tagging the N-terminus of LQI peptide with Cy5, biotin or fluorescein (FIG. 1C). Competition assays were then performed in order to evaluate the binding of LQI and its conjugates to murine neutrophils. For the competition assays, 1×10^6 density-gradient purified HDNs from 4T1 tumor bearing Balb/C mice were incubated first with each of the synthetic peptides for 20 min, and later incubated with 10^10 phages presenting the LQI peptide on their surface. Phage binding was detected by flow cytometry with a M13-PE antibody.

monocytes or lymphocytes = experiment: Binding of peptide-presenting phage to WBC of 4T1 tumor bearing mice (anti-M13 PE, flow cytometry); design: species or system mouse; conditions: phage presenting the peptide
Description: (§5) FIGS. 1A-D: Validation of Phage Binding of Highest-Ranking Peptides Sequences Selected on Mouse Neutrophils. […] (SEQ ID NO: 9) peptide to neutrophils (Ly6G+CD11b+, red histogram) and other WBC (Ly6G−CD11b−, blue histogram) was evaluated using anti-M13 PE-labelled antibody and (1A) flow cytometry analysis or (1B) microscopy. (1C) Overview of LQI peptide constructs—the LQI peptide sequence on the phage is inserted within the protein VIII coat protein of the phage (LQI peptide in orange) and neighboring amino acid residues are depicted (recombinant LQI pVIII). An unlabeled, Cy5-labeled, biotin-labeled and the LQI peptide construct including neighboring amino acids from coat protein VIII as well as a glycine linker and fluorescein, were generated and tested for binding. (1D) Competition assay of LQI phage binding and LQI peptide constructs. Neutrophils were incubated with the LQI-presenting phage (black line) alone or with the LQI-presenting phage and different LQI peptide constructs at the same time (blue line). Phage binding to neutrophils was quantified using anti-M13-PE antibody (only M13-PE=dotted line).
(§6) The peptide having the best binding obtained in the screening was the peptide LQI, consisting of the amino acid sequence […] (SEQ ID NO: 9).

[13] = tested on: neutrophils (Ly6G+CD11b+); experiment: as above; design: species or system mouse; conditions: phage presenting the peptide
Description: as §5, §6

Compound: 16-LQI: LQI tetramer-streptavidin (SA) complex, a 16-mer of the LQI-peptide [Peptide 16-LQI]
- specificity to circulating neutrophils (Ly6G+ cells) (circulating neutrophils; mice bearing 4T1 tumors): strong specificity
- binding to circulating neutrophils (circulating neutrophils; neutrophils isolated from healthy mice, ex vivo): 87%
- percentage of doublets versus cells stained with only SA-Cy3 (neutrophils [1]): Differences were not detected
- affinity for neutrophils relative to LQI-tetramer alone [2]: more than 75 times
- uptake seen by confocal imaging (neutrophils [3]): engulfed specifically by neutrophils
- binding to other WBC (other WBC): ~10%
- binding of neutrophils (neutrophils [4]): 100%
- binding to circulating CD177+ cells [5]: all circulating CD177+ cells (neutrophils) bind
- clusters in which CD177 and 16-LQI signals overlap (CD177 [6]): > 90%

Compound: c1ccc2c(c1)[I+]c1ccccc1-2 [DPI, diphenyleneiodonium chloride]
- effect on PMA stimulated ROS production [7]: efficiently blocked; also recorded: completely blocked ROS production

Compound: (LQIQSWSSSP (SEQ ID NO: 9) Doa-Doa-C)4-(Mpa)-4-Lys2-Lys-beta-Ala-Lys(Biotin)-beta-Ala-OH [LQI tetramer]
- binding to the different types of neutrophils (circulating neutrophils; summary FIG. 2H): very high efficiency
- binding efficiency to TANs [8]: 98%
- Kd ([2]; purified HDNs, flow cytometry): 3.3 µM
- peptide/control ratio of CD177 in pulldown (CD177 [9]): 7.89
- effect on neutrophil migration ([10]; 3.09 μM and 309 nM in upper chamber, CXCL2 in lower chamber, 1.5 h): no significant effect on neutrophil migration
- chemoattractant activity ([10]; migration towards media containing LQI-tetramer): does not itself act as a chemoattractant
- binding to other WBC (other WBC): ~50%
- binding of neutrophils (neutrophils [4]): ~100%
- effect on the ability of HDNs to kill cancer cells [11]: does not affect the ability of HDNs to kill cancer cells

Compound: LQIQSWSSSP
- binding to HEK293T cells (murine CD177): binds only to HEK293T cells ectopically expressing the murine CD177
- Prevalence (%) (murine neutrophils): 28.4%
- competition with LQI phage binding to neutrophils [12]: able to compete with the phage binding to neutrophils
- binding of phage to monocytes or lymphocytes (monocytes or lymphocytes): no detectable binding
- binding of phage to neutrophils [13]: 95%

Compound: LSIVSGSALNHL
- Prevalence (%) (murine neutrophils): 2.9%

Compound: LTLVSERPMI
- Prevalence (%) (murine neutrophils): 1.5%

Compound: STMTILGTGS
- Prevalence (%) (murine neutrophils): 10.4%

Compound: TETSLRIVSTNP
- Prevalence (%) (murine neutrophils): 4.1%
